From patent EP2050748A1, “Novel fused pyrimidines” (Bayer Schering Pharma Aktiengesellschaft, priority 2007, dated 2009)

How the values were obtained:
[1] = tested on: phosphorylated Akt protein (Ser473); assay: Cellular PI3K / Akt pathway assay (phospho-Akt ELISA); format: cell-based; settings: Homo sapiens; MCF7 cells, stimulated with ß-Heregulin (20ng/ml), compound incubated 48h, phospho-Akt1 (Ser473) ELISA
Protocol: In order to study the cellular activity of the compounds according to the present invention, an Enzyme Linked Immunosorbent Assay (ELISA)-based assay has been used specific phospho-AKT. The assay is based on a Sandwich ELISA kit (PathScan™ Phospho-Akt1 (Ser473); Cell Signaling, USA; #7160).
The ELISA Kit detects endogenous levels of phosphorylated Akt protein. A phospho-Akt (Ser473) antibody (Cell Signaling, USA; #9271) has been coated onto the microwells. After incubation with cell lysates, the coated antibody captures the phosphorylated Akt protein. Following extensive washing, Akt1 monoclonal antibody (Cell Signaling, USA; #2967) is added to detect the captured phospho-Akt1 protein. HRP-linked anti-mouse antibody (HRP: horseradish peroxidase; Cell Signaling, USA; #7076) is then used to recognize the bound detection antibody. HRP substrate (= 3,3',5,5'-tetramethylbenzidine (TMB); Cell Signaling, USA; #7160) is added to develop colour. The magnitude of optical density for this developed color is proportional to the quantity of phosphorylated Akt protein.
MCF7 cells (ATCC HTB-22) are seeded into 96 well fate bottom plates at a density of 10000 cells/well. 24 hours after seeding, the cells are serum starved using low-serum medium (IMEM media including 0,1% charcoal treated FCS (FCS: fetal calf serum)). After 24 hours 1 µl each of the compound dilutions (test compounds were dissolved as 10 mM solutions in dimethylsulfoxide (DMSO) and subsequently diluted) are added into each well of the 96 well plates and incubated for 48h at 37°C in a humidified athmosphere containing 5% CO2. To stimulate Akt phosphorylation, ß-Heregulin (20ng/ml β-HRG) is added in parallel to the compounds. Wells containing unstimulated control cells (no β-Heregulin stimulation) are incubated with or without the diluted compound. Wells containing untreated control cells (no compound) are filled with medium containing 0.5% v:v DMSO and are or are not stimulated with β-Heregulin.
Cells are harvested and lysed with brief sonification in 1x x cell lysis buffer (20mM Tris (pH7.5), 150 mM NaCl, 1 mM ethylene diaminetetraacetate (EDTA), 1 mM ethylene glycolbis(2-aminoethyl)-N,N,N',N'-tetraacetic acid (EGTA), 1vol% Triton X-100, 2.5mM sodium pyrophosphate, 1 mM β-glycerolphosphate, 1 mM Na3VO4, 1 µg/ml leupeptin). The lysate is centrifuged for 10 min. at 4°C and the supernatant is transferred to a new tube. 100 µl of sample diluent (0.1vol% Tween-20, 0.1vol% sodium azide in phosphate buffered saline (PBS)) are added to a microcentrifuge tube and 100 µl of cell lysate are transferred into the tube and vortexed. 100 µl of each diluted cell lysate are added to the appropriate ELISA well, and incubated overnight at 4°C. The plates are washed 4 times with 1 x wash buffer (1 vol% tween-20, 0.33vol% thymol, in PBS). Next 100 µl of detection antibody (Akt1 (2H10) monoclonal detection antibody; Cell Signaling, USA; #2967) are added to each well and incubation continued for 1 h at 37°C. The washing procedure is repeated between each step. 100µl of secondary antibody (anti-mouse IgG HRP-linked antibody; Cell Signaling, USA; #7076) are added to each well and incubated for 30 min. at 37°C. Than, 100µl of TMB substrate (0.05% 3,3',5,5' tetramethylbenzidine, 0.1 % hydrogen peroxide, complex polypeptides in a buffered solution; Cell Signaling, USA; #7160) are added to each well and incubated for 30 min. at 25°C. Finally 100 µl of STOP solution (0.05vol% α and β unsaturated carbonyl compound) are added to each well and the plate are shaked gently. The absorbance is measured at λ=450 nm (Wallac Victor2; Perkin Elmer, USA) within 30 min. after adding the STOP solution. The analysis of the data is performed using a statistical program (Excel; Microsoft, USA). Preferred compounds show an inhibitory activity towards Akt phosphorylation below 10µM.

[2] = tested on: phosphorylated GSK3 (Ser9); assay: Cellular pGSK3 assay (phospho-GSK3 ELISA); format: cell-based; settings: Homo sapiens, MCF7 cells, compound incubated 48h
Protocol: In order to study the cellular activity of the compounds according to the present invention, an ELISA-based assay has been established for the phosphorylated protein glycogen synthetase kinase 3 (GSK3). The assay is based on a solid phase sandwich ELISA that detects endogenous levels of phosphorylated GSK3 using a phospho-GSK3 (Ser9) specific antibody (BioSource International, Inc.; Catalog #KHO0461). After incubation with cell lysates, the coated antibody captures the phosphorylated GSK3 protein. Following extensive washing, GSK3 polyclonal antibody is added to detect the captured phospho-GSK3 protein. Secondary antibody (anti-rabbit IgG-HRP) is then used to recognize the bound detection antibody. After the second incubation and washing to remove all the excess anti-rabbit IgG-HRP, a substrate solution is added, which is acted upon by the bound enzyme to produce color. The intensity of this colored product is directly proportional to the concentration of GSK-3β [pS9] present in the original specimen. MCF7 cells (ATCC HTB-22) were seeded into 96 well fate bottom plates at a density of 10000 cells/well. After 24 h 1 µl each of the compound dilutions (test compounds were dissolved as 10 mM solutions in dimethylsulfoxide (DMSO) and subsequently diluted) were added into each well of the 96 well plates and incubated for 48h at 37°C in a humidified athmosphere containing 5% CO2. Cells were harvested and lysed in cell extraction buffer (10 mM Tris, pH 7.4, 100 mM NaCl, 1 mM EDTA, 1 mM EGTA, 1 mM NaF, 20 mM Na4P2O7, 2 mM Na3VO4, 1% Triton X-100, 10vol% glycerol, 0.1vol% SDS, 0.5vol% deoxycholate, 1 mM phenylmethylsulfonylfluorid (PMSF)). The lysate were centrifuged for 10 min. at 4°C and the supernatant were transferred to a new tube. 50 µl of sample diluent (standard diluent buffer, Biosource) were added and 100 µl of cell lysate transferred into the tube and vortexed. 100 µl of each diluted cell lysate were added to the appropriate ELISA well plate and incubated for 3h at room temperature. The plates were washed 4 times with 1x wash buffer (Biosource). 50 µl of detection antibody (GSK3 (Ser9) detection antibody; BioSource) were added to each well and incubated for 30 min. at room temperature. The washing procedure was repeated between each step. 100µl of HRP-linked secondary antibody (anti-mouse IgG HRP-linked antibody) were added to each well and incubated for 30 min. at room temperature. 100µl of TMB substrate (0.05vol% 3,3',5,5' tetramethylbenzidine, 0.1vol% hydrogen peroxide, complex polypeptides in a buffered solution; Biosource) were added to each well and incubated for 30 min. at room temperature. Finally 100 µl of Stop solution (0.05vol% α and β unsaturated carbonyl compound) were added to each well and the plate were shaked gently for a few seconds. The absorbance was measured at λ = 450 nm (Wallac Victor2; Perkin Elmer, USA) within 30 min. after adding the stop solution. The analysis of the data was performed using a statistical program (Excel; Microsoft, USA) and the IC50 of pGSK3 inhibition was determined.

Row | Compound | IC50 [1] | IC50 [2]
1 | c1ccc(-c2cn3ccnc3nc2-c2ccc(CN3CCC(c4nc(-c5ccccn5)n[nH]4)CC3)cc2)cc1 [Example 1, 6-phenyl-7-(4-{[4-(3-pyridin-2-yl-1,2,4-triazol-5-yl)piperidin-1-yl]methyl}phenyl)imidazo[1,2-a]pyrimidine] | < 1 µM | < 1 µM
2 | c1ccc(-c2cn3ncnc3nc2-c2ccc(CN3CCC(c4n[nH]c(-c5ccccn5)n4)CC3)cc2)cc1 [Example 2, 6-phenyl-5-(4-([4-(5-pyridin-2-yl-1,2,4-triazol-3-yl)piperidin-1-yl]methyl}phenyl)[1,2,4]triazolo[1,5-a]pyrimidine] | < 1 µM | 1 to 10 µM
3 | Cc1nc2nc(-c3ccc(CN4CCC(c5n[nH]c(-c6ccccn6)n5)CC4)cc3)c(-c3ccccc3)cn2n1 [Example 3, 2-methyl-6-phenyl-5-(4-{[4-(5-pyridin-2-yl-1,2,4-triazol-3-yl)piperidin-1-yl]methyl}phenyl)[1,2,4]triazolo[1,5-a]pyrimidine] | < 1 µM | 1 to 10 µM
4 | c1ccc(-c2cn3nc(C4CC4)nc3nc2-c2ccc(CN3CCC(c4n[nH]c(-c5ccccn5)n4)CC3)cc2)cc1 [Example 4, 2-cyclopropyl-6-phenyl-5-(4-{[4-(5-pyridin-2-yl-1,2,4-triazol-3-yl)piperidin-1-yl]methyl}phenyl)[1,2,4]triazolo[1,5-a]pyrimidine] | < 1 µM | 1 to 10 µM
5 | c1ccc(-c2cn3ccnc3nc2-c2ccc(CN3CCC(c4cc(-c5ccccn5)n[nH]4)CC3)cc2)cc1 [Example 5, 6-phenyl-7-(4-{[4-(3-pyridin-2-yl-pyrazol-5-yl)piperidin-1-yl]methyl}phenyl)imidazo[1,2-a]pyrimidine] | < 1 µM | 1 to 10 µM
6 | c1ccc(-c2cn3ccnc3nc2-c2ccc(CN3CCC(c4n[nH]c(-c5ccncc5)n4)CC3)cc2)cc1 [Example 6, 6-phenyl-7-(4-{[4-(5-pyridin-4-yl-1,2,4-triazol-3-yl)piperidin-1-yl]methyl}phenyl)imidazo[1,2-a]pyrimidine] | < 1 µM | 1 to 10 µM
7 | c1ccc(-c2cn3nc(C4CCC4)nc3nc2-c2ccc(CN3CCC(c4n[nH]c(-c5ccccn5)n4)CC3)cc2)cc1 [Example 7, 2-cyclobutyl-6-phenyl-5-(4-{[4-(5-pyridin-2-yl-1,2,4-triazol-3-yl)piperidin-1-yl]methyl}phenyl)[1,2,4]triazolo[1,5-a]pyrimidine] | < 1 µM | < 1 µM
8 | N#Cc1cnc2nc(-c3ccc(CN4CCC(c5n[nH]c(-c6ccccn6)n5)CC4)cc3)c(-c3ccccc3)cn12 [Example 8, 6-phenyl-7-(4-{[4-(5-pyridin-2-yl-1,2,4-triazol-3-yl)piperidin-1-yl]methyl}phenyl)imidazo[1,2-a]pyrimidine-3-carbonitrile] | < 1 µM | 1 to 10 µM
9 | Fc1cnc2nc(-c3ccc(CN4CCC(c5n[nH]c(-c6ccccn6)n5)CC4)cc3)c(-c3ccccc3)cn12 [Example 9, 3-fluoro-6-phenyl-7-(4-{[4-(5-pyridin-2-yl-1H-1,2,4-triazol-3-yl)piperidin-1-yl]methyl}phenyl)imidazo[1,2-a]pyrimidine] | < 1 µM | 1 to 10 µM
10 | CNc1c(-c2ccccc2)c(-c2ccc(CN3CCC(c4n[nH]c(-c5ccccn5)n4)CC3)cc2)nc2nccn12 [Example 10, N-methyl-6-phenyl-7-(4-{[4-(5-pyridin-2-yl-1,2,4-triazol-3-yl)piperidin-1-yl]methyl}phenyl)imidazo[1,2-a]pyrimidin-5-amine] | 1 to 10 µM | < 1 µM
11 | Brc1cnc2nc(-c3ccc(CN4CCC(c5n[nH]c(-c6ccccn6)n5)CC4)cc3)c(-c3ccccc3)cn12 [Example 11, 3-bromo-6-phenyl-7-(4-{[4-(5-pyridin-2-yl-1,2,4-triazol-3-yl)piperidin-1-yl]methyl}phenyl)imidazo[1,2-a]pyrimidine] | < 1 µM | < 1 µM
12 | Clc1cnc2nc(-c3ccc(CN4CCC(c5n[nH]c(-c6ccccn6)n5)CC4)cc3)c(-c3ccccc3)cn12 [Example 12, 3-chloro-6-phenyl-7-(4-{[4-(5-pyridin-2-yl-1,2,4-triazol-3-yl)piperidin-1-yl]methyl}phenyl)imidazo[1,2-a]pyrimidine] | < 1 µM | 1 to 10 µM
13 | C#Cc1cnc2nc(-c3ccc(CN4CCC(c5n[nH]c(-c6ccccn6)n5)CC4)cc3)c(-c3ccccc3)cn12 [Example 13, 3-ethynyl-6-phenyl-7-(4-{[4-(5-pyridin-2-yl-1,2,4-triazol-3-yl)piperidin-1-yl]methyl}phenyl)imidazo[1,2-a]pyrimidine] | < 1 µM | 1 to 10 µM
14 | Cc1cnc2nc(-c3ccc(CN4CCC(c5n[nH]c(-c6ccccn6)n5)CC4)cc3)c(-c3ccccc3)cn12 [Example 14, 3-methyl-6-phenyl-7-(4-{[4-(5-pyridin-2-yl-1,2,4-triazol-3-yl)piperidin-1-yl]methyl}phenyl)imidazo[1,2-a]pyrimidine] | < 1 µM | 1 to 10 µM
15 | C=Cc1cnc2nc(-c3ccc(CN4CCC(c5n[nH]c(-c6ccccn6)n5)CC4)cc3)c(-c3ccccc3)cn12 [Example 15, 6-phenyl-7-(4-{[4-(5-pyridin-2-yl-1,2,4-triazol-3-yl)piperidin-1-yl]methyl}phenyl)-3-vinylimidazo[1,2-a]pyrimidine] | < 1 µM | 1 to 10 µM
